Measurements published in PubChem BioAssay AID256 (DTP/NCI, 2004).
Where “and” joins values, the source holds several entries; their conditions need not be identical. Equal values may be shown once. Inconclusive results and toxic doses are left out.

Test system: CD2F1 mice, L1210 leukemia ip, survival T/C
Test: NCI In Vivo Anticancer Drug Screen. Data for tumor model L1210 Leukemia (intraperitoneal) in CD2F1 (CDF1) mice
Settings: endpoint: mean survival time, higher = longer survival
Method in brief: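 Transplantable tumor in mice; compound-treated vs vehicle-treated groups. Read-out = treated/control ratio of the measured endpoint.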

[1] = dose: 75.0 mg/kg/injection, schedule: Q04DX002 (ip), vehicle: saline with Tween-80
[2] = dose: 150.0 mg/kg/injection, schedule: Q04DX002 (ip), vehicle: saline with Tween-80
[3] = dose: 300.0 mg/kg/injection, schedule: Q04DX002 (ip), vehicle: saline with Tween-80
[4] = dose: 100.0 mg/kg/injection, schedule: Q04DX002 (ip), vehicle: saline with Tween-80
[5] = dose: 200.0 mg/kg/injection, schedule: Q04DX002 (ip), vehicle: saline with Tween-80
[6] = dose: 100.0 mg/kg/injection, schedule: Q01DX009 (ip), vehicle: saline with Tween-80
[7] = dose: 25.0 mg/kg/injection, schedule: Q01DX009 (ip), vehicle: saline with Tween-80
[8] = dose: 50.0 mg/kg/injection, schedule: Q01DX009 (ip), vehicle: saline with Tween-80
[9] = dose: 100.0 mg/kg/injection, schedule: Q04DX003 (ip), vehicle: saline with Tween-80
[10] = dose: 200.0 mg/kg/injection, schedule: Q01DX009 (ip), vehicle: saline with Tween-80
[11] = dose: 400.0 mg/kg/injection, schedule: Q01DX009 (ip), vehicle: saline with Tween-80
[12] = dose: 200.0 mg/kg/injection, schedule: Q04DX003 (ip), vehicle: saline with Tween-80
[13] = dose: 400.0 mg/kg/injection, schedule: Q04DX003 (ip), vehicle: saline with Tween-80

## CCc1ccc(N=Nc2ccc(N(C)C)cc2)cc1CC
[1]
  T/C: 92 % of control
[2]
  T/C: 92 % of control
[3]
  T/C: 88 % of control

## CN1CCC(O)(C#N)CC1
dose: 3.75 mg/kg/injection, schedule: Q04DX003 (ip), vehicle: saline
  T/C: 102 % of control
dose: 7.5 mg/kg/injection, schedule: Q04DX003 (ip), vehicle: saline
  T/C: 102 % of control
dose: 15.0 mg/kg/injection, schedule: Q04DX003 (ip), vehicle: saline
  T/C: 100 % of control

## Cc1ccccc1CC#N
dose: 12.5 mg/kg/injection, schedule: Q04DX002 (ip), vehicle: saline
  T/C: 96 % of control
dose: 25.0 mg/kg/injection, schedule: Q04DX002 (ip), vehicle: saline
  T/C: 99 % of control

## Brc1ccc2[nH]c3c(c2c1)CSc1ccccc1-3
dose: 100.0 mg/kg/injection, schedule: Q01DX009 (ip), vehicle: Klucel (hydroxypropylcellulose) (HPC)
  T/C: 104 % of control
dose: 200.0 mg/kg/injection, schedule: Q01DX009 (ip), vehicle: Klucel (hydroxypropylcellulose) (HPC)
  T/C: 108 % of control
dose: 400.0 mg/kg/injection, schedule: Q01DX009 (ip), vehicle: Klucel (hydroxypropylcellulose) (HPC)
  T/C: 112 % of control

## O=C(O)c1cc(F)ccc1Cl
[4]
  T/C: 97 % of control
[5]
  T/C: 86 % of control

## N#CC(/C=C/c1ccccc1)Nc1ccccc1O (stereo not drawn)
[6]
  T/C: 93 % of control

## CCOc1ccc(NC(=O)C2CCC(C)(C(=O)O)C2(C)C)cc1 (stereo not drawn)
[7]
  T/C: 102 % of control
dose: 25.0 mg/kg/injection, schedule: Q04DX003 (ip), vehicle: saline with Tween-80
  T/C: 98 % of control
[8]
  T/C: 98 % of control
dose: 50.0 mg/kg/injection, schedule: Q04DX003 (ip), vehicle: saline with Tween-80
  T/C: 100 % of control
[6]
  T/C: 95 % of control
[9]
  T/C: 96 % of control and 98 % of control

## COc1ccc(OCCOC(=O)Nc2c(Cl)cccc2Cl)cc1
[8]
  T/C: 98 % of control
[6]
  T/C: 94 % of control
[10]
  T/C: 94 % of control

## C=CCNC(=O)NCC=C
dose: 3.13 mg/kg/injection, schedule: Q01DX009 (ip), vehicle: saline
  T/C: 102 % of control and 110 % of control (2×)
dose: 12.5 mg/kg/injection, schedule: Q01DX005 (ip), vehicle: saline
  T/C: 102 % of control
dose: 12.5 mg/kg/injection, schedule: Q02DX005 (ip), vehicle: saline
  T/C: 97 % of control
dose: 12.5 mg/kg/injection, schedule: Q04DX003 (ip), vehicle: saline
  T/C: 100 % of control
dose: 25.0 mg/kg/injection, schedule: Q01DX005 (ip), vehicle: saline
  T/C: 105 % of control
dose: 25.0 mg/kg/injection, schedule: Q02DX005 (ip), vehicle: saline
  T/C: 100 % of control
dose: 25.0 mg/kg/injection, schedule: Q04DX003 (ip), vehicle: saline
  T/C: 102 % of control
dose: 50.0 mg/kg/injection, schedule: Q01DX005 (ip), vehicle: saline
  T/C: 103 % of control
dose: 50.0 mg/kg/injection, schedule: Q02DX005 (ip), vehicle: saline
  T/C: 103 % of control
dose: 50.0 mg/kg/injection, schedule: Q04DX003 (ip), vehicle: saline
  T/C: 103 % of control
dose: 100.0 mg/kg/injection, schedule: Q01DX005 (ip), vehicle: saline
  T/C: 109 % of control
dose: 100.0 mg/kg/injection, schedule: Q01DX006 (ip), vehicle: saline
  T/C: 154 % of control
dose: 100.0 mg/kg/injection, schedule: Q02DX005 (ip), vehicle: saline
  T/C: 105 % of control
dose: 100.0 mg/kg/injection, schedule: Q03DX003 (ip), vehicle: saline
  T/C: 120 % of control
dose: 100.0 mg/kg/injection, schedule: Q04DX003 (ip), vehicle: saline
  T/C: 115 % of control and 109 % of control
dose: 200.0 mg/kg/injection, schedule: Q01DX006 (ip), vehicle: saline
  T/C: 168 % of control
dose: 200.0 mg/kg/injection, schedule: Q02DX005 (ip), vehicle: saline
  T/C: 109 % of control
dose: 200.0 mg/kg/injection, schedule: Q04DX003 (ip), vehicle: saline
  T/C: 115 % of control and 120 % of control
dose: 400.0 mg/kg/injection, schedule: Q02DX005 (ip), vehicle: saline
  T/C: 115 % of control
dose: 400.0 mg/kg/injection, schedule: Q04DX003 (ip), vehicle: saline
  T/C: 97 % of control

## Cc1ccc(Nc2ccc(O)c3c2C(=O)c2c(O)ccc(Nc4ccc(C)cc4)c2C3=O)cc1
[6]
  T/C: 88 % of control
[10]
  T/C: 88 % of control
[11]
  T/C: 98 % of control

## CCOC(=O)C1CC2(CC(C)C1=O)OCCO2 (stereo not drawn)
dose: 100.0 mg/kg/injection, schedule: Q04DX003 (ip), vehicle: alcohol
  T/C: 97 % of control
dose: 200.0 mg/kg/injection, schedule: Q04DX003 (ip), vehicle: alcohol
  T/C: 97 % of control
dose: 400.0 mg/kg/injection, schedule: Q04DX003 (ip), vehicle: alcohol
  T/C: 92 % of control

## CC(C)c1ccc(C2CCCCC2O)cc1 (stereo not drawn)
[6]
  T/C: 89 % of control
[9]
  T/C: 105 % of control
[10]
  T/C: 92 % of control
[12]
  T/C: 91 % of control
[13]
  T/C: 94 % of control

## CCCCCC(=O)C(C)C(C)C (stereo not drawn)
[8]
  T/C: 97 % of control
[6]
  T/C: 97 % of control
[10]
  T/C: 97 % of control

## CN=C(N)c1ccc(N=C(N)c2ccc(NC(=O)c3ccc(C(N)=NC)cc3)cc2)cc1
dose: 30.0 mg/kg/injection, schedule: Q01DX Z (ip), vehicle: water
  T/C: 151 % of control

## O=C(CCCl)OCCCl
[9]
  T/C: 102 % of control
[12]
  T/C: 92 % of control

## CN(C)C(=O)Sc1ccc(S(=O)(=O)F)cc1F
[4]
  T/C: 91 % of control
[5]
  T/C: 91 % of control

## NC(=O)C1(C(N)=O)CCCC1
[1]
  T/C: 112 % of control
[2]
  T/C: 96 % of control
[3]
  T/C: 96 % of control

## Nc1cc2c(ncn2C2OC(CO)C(O)C2O)c(=O)n1N (stereo not drawn)
dose: 12.5 mg/kg/injection, schedule: Q01DX005 (ip), vehicle: distilled water + Tween-80
  T/C: 96 % of control
dose: 25.0 mg/kg/injection, schedule: Q01DX005 (ip), vehicle: distilled water + Tween-80
  T/C: 97 % of control
dose: 50.0 mg/kg/injection, schedule: Q01DX005 (ip), vehicle: distilled water + Tween-80
  T/C: 105 % of control
dose: 100.0 mg/kg/injection, schedule: Q01DX005 (ip), vehicle: distilled water + Tween-80
  T/C: 94 % of control
dose: 200.0 mg/kg/injection, schedule: Q01DX005 (ip), vehicle: distilled water + Tween-80
  T/C: 94 % of control

## CN(C)CC(=O)Nc1cc(Cl)ccc1Oc1ccc(Cl)cc1
[6]
  T/C: 103 % of control
[10]
  T/C: 100 % of control
[11]
  T/C: 105 % of control

## CNCCNc1ccc(NCCNC)c2c1C(=O)c1ccccc1C2=O
dose: 4.0 mg/kg/injection, schedule: Q01DX009 (ip), vehicle: acid diluted with saline
  T/C: 150 % of control and 157 % of control
dose: 8.0 mg/kg/injection, schedule: Q01DX009 (ip), vehicle: acid diluted with saline
  T/C: 187 % of control and 195 % of control
dose: 16.0 mg/kg/injection, schedule: Q01DX009 (ip), vehicle: acid diluted with saline
  T/C: 177 % of control

## COC(=O)C1C2CC(C3OC23)C1C(=O)OC (stereo not drawn)
[6]
  T/C: 100 % of control
[9]
  T/C: 97 % of control
[10]
  T/C: 115 % of control
[12]
  T/C: 89 % of control
[11]
  T/C: 102 % of control
[13]
  T/C: 103 % of control

## O=C(NC(CCO)C(=O)O)OCc1ccccc1 (stereo not drawn)
dose: 75.0 mg/kg/injection, schedule: Q04DX003 (ip), vehicle: saline
  T/C: 95 % of control
dose: 150.0 mg/kg/injection, schedule: Q04DX003 (ip), vehicle: saline
  T/C: 98 % of control
dose: 300.0 mg/kg/injection, schedule: Q04DX003 (ip), vehicle: saline
  T/C: 101 % of control

## C[CH2][Sn]([I])([CH2]C)[CH2]C
dose: 6.25 mg/kg/injection, schedule: Q01DX009 (ip), vehicle: saline with Tween-80
  T/C: 89 % of control

## CC(C)(O)CN
[7]
  T/C: 95 % of control
[8]
  T/C: 98 % of control
[6]
  T/C: 91 % of control

## CC(=O)Oc1c(Cl)cc(Cl)c(Cl)c1[N+](=O)[O-]
dose: 100.0 mg/kg/injection, schedule: Q01DX001 (ip), vehicle: saline with Tween-80
  T/C: 93 % of control
dose: 200.0 mg/kg/injection, schedule: Q01DX001 (ip), vehicle: saline with Tween-80
  T/C: 93 % of control

## O=[N+]([O-])C(Br)(CO)CO
dose: 4.7 mg/kg/injection, schedule: Q01DX009 (ip), vehicle: saline
  T/C: 101 % of control
dose: 4.7 mg/kg/injection, schedule: Q04DX003 (ip), vehicle: saline
  T/C: 98 % of control
dose: 9.4 mg/kg/injection, schedule: Q01DX009 (ip), vehicle: saline
  T/C: 101 % of control
dose: 9.4 mg/kg/injection, schedule: Q04DX003 (ip), vehicle: saline
  T/C: 96 % of control
dose: 18.8 mg/kg/injection, schedule: Q01DX001 (ip), vehicle: saline
  T/C: 102 % of control
dose: 18.8 mg/kg/injection, schedule: Q01DX009 (ip), vehicle: saline
  T/C: 95 % of control
dose: 18.8 mg/kg/injection, schedule: Q04DX003 (ip), vehicle: saline
  T/C: 105 % of control
